Data reported in patent US8436159B2, “Glyphosate resistant class I 5-endolpyruvylshikimate-3-phosphate synthase (EPSPS)” (Monsanto Technology LLC, priority 2003, dated 2013).

Target: T1, maize (Zea mays) class I EPSPS variant TIPI (T102I, P106I), pMON42486 (Zea mays, UniProt O24566, P106I/T102I)
T1 construct: pMON42486
T1 sequence (O24566 1-444 T102I/P106I): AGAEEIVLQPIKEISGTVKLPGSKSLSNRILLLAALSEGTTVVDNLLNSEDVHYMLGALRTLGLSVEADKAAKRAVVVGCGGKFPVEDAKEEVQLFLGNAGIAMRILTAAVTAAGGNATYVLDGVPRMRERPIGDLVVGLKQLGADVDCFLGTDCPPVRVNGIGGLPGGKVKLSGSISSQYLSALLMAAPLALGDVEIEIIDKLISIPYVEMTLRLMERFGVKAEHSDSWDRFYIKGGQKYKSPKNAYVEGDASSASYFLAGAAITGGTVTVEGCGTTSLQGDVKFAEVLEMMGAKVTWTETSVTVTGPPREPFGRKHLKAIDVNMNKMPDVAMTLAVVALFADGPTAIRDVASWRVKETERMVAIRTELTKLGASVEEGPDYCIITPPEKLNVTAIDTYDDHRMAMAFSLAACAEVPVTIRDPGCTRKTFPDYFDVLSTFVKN
Assay: EPSPS steady-state kinetics, TIPI variant
Type: biochemical
Description: The double variants of the present invention were made using pMON58452 (FIG. 5) as the template. This pMON58452 EPSPS gene template contains the maize EPSPS double variant T102I, P106T (TIPT) that was constructed by mutagenesis of pMON70467 with the mutagenesis primers mEmut-9-U and mEmut-10-L. The various mutagenesis primer sequences were designed and then were synthesized by Invitrogen Corp., Custom Primers and used in combination in a PCR to create the variant EPSPS coding sequences. The PCR was set up in a 50 μl reaction in the following manner: dH2O 38 μl; 2 mM dNTP 1 μL; 10× buffer 5 μL; pMON58452 1 μL (10 ng); primer-U 2 μL; primer-L 2 μL; pfu Turbo enzyme 1 μL. PCR was carried out on a MJ Research PTC-200 thermal cycler using the following program: Step 1—94° C. for 30 seconds; Step 2—94° C. for 30 seconds; Step 3—55° C. for 1 minute; Step 4—68° C. for 14 minute; Step 5—go to step 2, 16 times; Step 6—End. At the end of the PCR, 1 μl of the restriction enzyme DpnI was added to each 50 μl of PCR reaction and the mixture was incubated at 37° C. for 1 hour. […]

Compound: O=C(O)CNCP(=O)(O)O [glyphosate, N-phosphonomethylglycine]
- Ki: 2500 ± 900 µM
